{"source": "ChEMBL document CHEMBL1134802", "about": "“Biphenyls as surrogates of the steroidal backbone. Part 1: synthesis and estrogen receptor affinity of an original series of polysubstituted biphenyls” (Bioorg Med Chem Lett, 2001)"}
{"target": "T1, Estrogen receptor (Homo sapiens) (UniProt P03372)", "T1 sequence (whole entry)": "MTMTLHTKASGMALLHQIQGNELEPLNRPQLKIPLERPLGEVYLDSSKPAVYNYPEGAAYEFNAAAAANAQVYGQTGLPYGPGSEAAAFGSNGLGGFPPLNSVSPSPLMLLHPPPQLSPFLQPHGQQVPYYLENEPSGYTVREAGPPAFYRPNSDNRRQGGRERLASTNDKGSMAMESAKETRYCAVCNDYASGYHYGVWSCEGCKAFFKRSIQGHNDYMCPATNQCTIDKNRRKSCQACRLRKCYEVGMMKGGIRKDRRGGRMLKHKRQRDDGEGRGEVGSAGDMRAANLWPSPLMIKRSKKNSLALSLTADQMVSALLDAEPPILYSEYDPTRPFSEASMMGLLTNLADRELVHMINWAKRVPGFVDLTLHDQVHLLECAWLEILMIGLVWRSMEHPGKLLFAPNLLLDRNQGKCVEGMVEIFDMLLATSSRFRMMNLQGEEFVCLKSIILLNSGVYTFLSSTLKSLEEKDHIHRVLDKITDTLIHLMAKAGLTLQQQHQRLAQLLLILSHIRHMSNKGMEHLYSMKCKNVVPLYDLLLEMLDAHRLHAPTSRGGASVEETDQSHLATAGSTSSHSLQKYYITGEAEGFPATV", "assay": "Binding affinity for human estrogen receptor alpha after 24 hr r at 0C", "units": {"Activity": "%"}}
{"smiles": "OCc1cc(Br)c(-c2ccc(O)cc2)c(Br)c1", "Activity": 106}
{"target": "T1, Estrogen receptor (Homo sapiens)", "assay": "Receptor binding affinity (RBA) to human recombinant estrogen receptor alpha (REH) after 24 hours at 0 degree Centigrade", "units": {"Activity": "%"}}
{"smiles": "OCc1cc(Cl)c(-c2ccc(O)cc2)c(-c2ccc(O)cc2)c1", "Activity": 1}
{"smiles": "OCc1ccc(-c2ccc(O)cc2)c(-c2ccc(O)cc2)c1", "Activity": 1}
{"smiles": "Cc1cc(-c2ccc(CO)cc2)cc(C)c1O", "Activity": 0}
{"smiles": "O=[N+]([O-])c1cc(CO)cc([N+](=O)[O-])c1-c1ccc(O)cc1", "Activity": 5}
{"smiles": "Cc1cc(O)cc(C)c1-c1ccc(CO)cc1", "Activity": 0.06}
{"smiles": "Nc1cc(CO)cc(Br)c1-c1ccc(O)cc1", "Activity": 0.03}
{"smiles": "OCc1cc(Cl)c(-c2ccc(O)cc2Cl)c(Cl)c1", "Activity": 21}
{"smiles": "CN(C)C#Cc1cc(CO)cc(Br)c1-c1ccc(O)cc1", "Activity": 0.2}
{"smiles": "OCc1cc(Cl)c(-c2ccc(O)cc2)c(C(F)(F)F)c1", "Activity": 50}
{"smiles": "COc1cc(CO)cc(OC)c1-c1ccc(O)cc1", "Activity": 0.24}
{"smiles": "OCc1cc(Cl)c(-c2ccc(O)c(Cc3ccccc3)c2)c(Cl)c1", "Activity": 0.07}
{"smiles": "CSc1cc(CO)cc(Br)c1-c1ccc(O)cc1", "Activity": 4.5}
{"smiles": "Cc1cc(CO)cc(C)c1-c1ccc(O)cc1", "Activity": 0.8}
{"smiles": "OCc1ccc(-c2c(Cl)c(Cl)c(O)c(Cl)c2Cl)cc1", "Activity": 0}
{"smiles": "Nc1cc(CO)cc([N+](=O)[O-])c1-c1ccc(O)cc1", "Activity": 0.03}
{"smiles": "OCc1ccc(-c2ccc(O)cc2)c(C(F)(F)F)c1", "Activity": 9.5}
{"smiles": "O=[N+]([O-])c1cc(CO)cc(Br)c1-c1ccc(O)cc1", "Activity": 34}
{"smiles": "OCc1ccc(-c2cc(Br)c(O)c(Br)c2)cc1", "Activity": 0}
{"smiles": "OCc1ccc(-c2ccc(O)cc2Cl)cc1", "Activity": 0.03}
{"smiles": "OCc1ccc(-c2c(Cl)cc(O)cc2Cl)cc1", "Activity": 0.4}
{"smiles": "OCc1cc(Br)c(-c2ccc(O)cc2)c(I)c1", "Activity": 41}
{"smiles": "OCc1cc(F)c(-c2ccc(O)cc2)c(F)c1", "Activity": 0.93}
{"smiles": "OCc1cc(Br)c(-c2ccc(O)cc2)c(-n2cccc2)c1", "Activity": 2}
{"smiles": "OCc1c(Cl)c(Cl)c(-c2ccc(O)cc2)c(Cl)c1Cl", "Activity": 5.4}
{"smiles": "CC(C)c1cc(CO)cc(Cl)c1-c1ccc(O)cc1", "Activity": 22}
{"smiles": "COc1cc(CO)cc(Cl)c1-c1ccc(O)cc1", "Activity": 2.5}
{"smiles": "OCc1cc(Cl)c(-c2ccc(O)cc2)c(Cl)c1", "Activity": 34}
{"smiles": "OCc1ccc(-c2ccc(O)cc2)c(Cl)c1", "Activity": 2}
{"target": "T1, Estrogen receptor (Homo sapiens)", "assay": "Binding affinity for human estrogen receptor alpha after 3 hr at 0C", "units": {"Activity": "%"}}
{"smiles": "O=[N+]([O-])c1cc(CO)cc([N+](=O)[O-])c1-c1ccc(O)cc1", "Activity": 24}
{"smiles": "OCc1ccc(-c2ccc(O)cc2)c(C(F)(F)F)c1", "Activity": 33}
{"smiles": "OCc1cc(Br)c(-c2ccc(O)cc2)c(Br)c1", "Activity": 425}
{"smiles": "OCc1cc(Cl)c(-c2ccc(O)cc2)c(Cl)c1", "Activity": 104}
